Results taken from ChEMBL document CHEMBL4765467, “Improving Thermodynamic Stability and Anticoagulant Activity of a Thrombin Binding Aptamer by Incorporation of 8-trifluoromethyl-2'-deoxyguanosine” (J Med Chem, 2021).
Active and inactive are the calls of the source. No cut-off for these calls is given here.

How the values were obtained:
Plasma [1] = assay: Anticoagulant activity in human plasma assessed prothrombin time in presence of 1.5 fold complementary sequence of TBA; format: functional, cell-free
[2] = Stability in 50% human plasma assessed as compound degradation at 50 uM measured within 3 hrs by PAGE analysis relative to TBA; format: ADME, cell-free
[3] = Stability in 50% human plasma assessed as compound degradation at 50 uM measured within 3 hrs by PAGE analysis; format: ADME, cell-free
Plasma [4] = assay: Anticoagulant activity in human plasma assessed prothrombin time in presence of complementary sequence of TBA; format: functional, cell-free
Plasma [5] = assay: Anticoagulant activity in human plasma assessed prothrombin time at 0.25 to 1 uM; format: functional; details: dose 0.25-1 µM
[6] = Thermodynamic stability assessed as change in melting temperature by CD spectroscopy relative to TBA; format: physicochemical
Rattus norvegicus = assay: Anticoagulant activity in ferric chloride-induced Sprague-Dawley rat carotid thrombosis model assessed as reduction in thrombus formation by measuring thrombus area at […], iv by H and E staining based analysis; format: functional; design: scale not given: the % may be the effect or the level left

| SMILES | Activity (Plasma [1]) | Stabilty [2] | Stabilty [3] | Activity (Plasma [4]) | PT (Plasma [5]) | deltaTm [6] | Activity (Rattus norvegicus) |
| --- | --- | --- | --- | --- | --- | --- | --- |
| Cc1cn([C@H]2C[C@H](OP(=O)(O)OC[C@H]3O[C@@H](n4c(C(F)(F)F)nc5c(=O)[nH]c(N)nc54)C[C@@H]3OP(=O)(O)OC[C@H]3O[C@@H](n4cnc5c(=O)[nH]c(N)nc54)C[C@@H]3OP(=O)(O)OC[C@H]3O[C@@H](n4cc(C)c(=O)[nH]c4=O)C[C@@H]3OP(=O)(O)OC[C@H]3O[C@@H](n4cnc5c(=O)[nH]c(N)nc54)C[C@@H]3OP(=O)(O)OC[C@H]3O[C@@H](n4cc(C)c(=O)[nH]c4=O)C[C@@H]3OP(=O)(O)OC[C@H]3O[C@@H](n4cnc5c(=O)[nH]c(N)nc54)C[C@@H]3OP(=O)(O)OC[C@H]3O[C@@H](n4cnc5c(=O)[nH]c(N)nc54)C[C@@H]3OP(=O)(O)OC[C@H]3O[C@@H](n4cc(C)c(=O)[nH]c4=O)C[C@@H]3OP(=O)(O)OC[C@H]3O[C@@H](n4cc(C)c(=O)[nH]c4=O)C[C@@H]3OP(=O)(O)OC[C@H]3O[C@@H](n4c(C(F)(F)F)nc5c(=O)[nH]c(N)nc54)C[C@@H]3OP(=O)(O)OC[C@H]3O[C@@H](n4cnc5c(=O)[nH]c(N)nc54)C[C@@H]3O)[C@@H](COP(=O)(O)O[C@H]3C[C@H](n4cc(C)c(=O)[nH]c4=O)O[C@@H]3COP(=O)(O)O[C@H]3C[C@H](n4cnc5c(=O)[nH]c(N)nc54)O[C@@H]3COP(=O)(O)O[C@H]3C[C@H](n4cnc5c(=O)[nH]c(N)nc54)O[C@@H]3COP(=O)(O)O)O2)c(=O)[nH]c1=O | inactive | Stable | Unstable | inactive | 26.7 s | 16.8 °C |  |
| Cc1cn([C@H]2C[C@H](OP(=O)(O)OC[C@H]3O[C@@H](n4cnc5c(=O)[nH]c(N)nc54)C[C@@H]3OP(=O)(O)OC[C@H]3O[C@@H](n4cnc5c(=O)[nH]c(N)nc54)C[C@@H]3OP(=O)(O)OC[C@H]3O[C@@H](n4cc(C)c(=O)[nH]c4=O)C[C@@H]3OP(=O)(O)OC[C@H]3O[C@@H](n4cnc5c(=O)[nH]c(N)nc54)C[C@@H]3OP(=O)(O)OC[C@H]3O[C@@H](n4cc(C)c(=O)[nH]c4=O)C[C@@H]3OP(=O)(O)OC[C@H]3O[C@@H](n4cnc5c(=O)[nH]c(N)nc54)C[C@@H]3OP(=O)(O)OC[C@H]3O[C@@H](n4cnc5c(=O)[nH]c(N)nc54)C[C@@H]3OP(=O)(O)OC[C@H]3O[C@@H](n4cc(C)c(=O)[nH]c4=O)C[C@@H]3OP(=O)(O)OC[C@H]3O[C@@H](n4cc(C)c(=O)[nH]c4=O)C[C@@H]3OP(=O)(O)OC[C@H]3O[C@@H](n4c(C(F)(F)F)nc5c(=O)[nH]c(N)nc54)C[C@@H]3OP(=O)(O)OC[C@H]3O[C@@H](n4cnc5c(=O)[nH]c(N)nc54)C[C@@H]3O)[C@@H](COP(=O)(O)O[C@H]3C[C@H](n4cc(C)c(=O)[nH]c4=O)O[C@@H]3COP(=O)(O)O[C@H]3C[C@H](n4cnc5c(=O)[nH]c(N)nc54)O[C@@H]3COP(=O)(O)O[C@H]3C[C@H](n4cnc5c(=O)[nH]c(N)nc54)O[C@@H]3COP(=O)(O)O)O2)c(=O)[nH]c1=O | inactive |  | Unstable | inactive | 29.1 s | 7.6 °C | 60% |
